{"source": "patent US4738969A", "about": "“Substituted aminopyridones and aminoquinolones having histamine H2 -receptor blocking activity” (Smith Kline & French Laboratories Limited, priority 1983, dated 1988)", "key": {"histamine H2 -receptors [1]": {"tested_on": "histamine H2 -receptors", "test": "inhibition of histamine-stimulated acid secretion in the Heidenhain Pouch Dog", "format": "in vivo", "conditions": "intravenous administration, dose levels adjusted to produce similar peak responses"}, "histamine H2 -receptors [2]": {"tested_on": "histamine H2 -receptors", "test": "inhibition of histamine-induced tachycardia in the isolated guinea pig right atrium (guinea pig atrium test)", "format": "cell-based", "conditions": "times more active than the reference compound", "from_the_text": "(§1) The measurement of inhibition of histamine-stimulated secretion of gastric acid from the lumen-perfused stomachs of rats anaesthetised with urethane, and the measurement of inhibition of histamine-induced tachycardia in the isolated guinea pig right atrium, are detailed in U.S. Pat. No. 4,385,058."}, "histamine H2 -receptors [3]": {"tested_on": "histamine H2 -receptors", "test": "inhibition of histamine-stimulated secretion of gastric acid from the lumen-perfused stomachs of rats anaesthetised with urethane (lumen-perfused rat test)", "format": "in vivo", "conditions": "times more active than the reference compound", "from_the_text": "These are actions of histamine which, according to Ash and Schild, Brit. J. Pharmac. Chemother. 27 247 (1966), are not mediated by histamine H1 -receptors.\nas §1"}}, "data": [{"smiles": "O=c1cc[nH]c(NCCCOc2cccc(CN3CCCCC3)c2)c1", "note": "[Example 1, 2-[3-[3-(Piperidinomethyl)phenoxy]propylaminc]-pyrid-4-one]", "values": [{"measurement": "duration of activity compared with cimetidine", "setting": "histamine H2 -receptors [1]", "value": "longer duration of activity than cimetidine"}, {"measurement": "activity relative to 2-[2-(5-methylimidazol-4-ylmethylthio)ethylamino]pyrid-4-one (Example 16 of U.S. Pat. No. 3,932,644), guinea pig atrium test", "setting": "histamine H2 -receptors [2]", "value": "over 100 times"}, {"measurement": "activity relative to 2-[2-(5-methylimidazol-4-ylmethylthio)ethylamino]pyrid-4-one (Example 16 of U.S. Pat. No. 3,932,644), lumen-perfused rat test", "setting": "histamine H2 -receptors [3]", "value": "over 100 times"}]}]}
